Structures can show the parent of a compound that is named as a salt.
Key:
TNF-α = assay: LPS-stimulated human monocyte-derived macrophage TNF-α inhibition assay; type: cell-based; conditions: 18 hours of culture
Experimental: Monocyte-derived macrophages stimulated with bacterial lipopolysaccharide (LPS) produce high levels of TNF-α (25.8+4.2 ηg/mL) during 18 hours of culture.

[1] = system: D-galactosamine animal model of septic shock; assay: D-galactosamine animal model of septic shock (protection against lethal effects of LPS); type: in vivo; conditions: treated about 1 hour before i.p. challenge of D-galactosamine and LPS, by 18 hours after challenge, test compound 100 mg/kg i.p.

SMILES	inhibition at 50 µM (TNF-α; Homo sapiens, at 50 μM, LPS-stimulated monocyte-derived macrophages, read-out: inhibition of TNF-α levels) [%]	IC50 (TNF-α; monocyte-derived macrophages from human peripheral blood, LPS-stimulated, dose response 100 μM-0.1 μM, read-out: IC50 for inhibiting TNF-α levels) [µM]	protection ([1]; mice) [%]	mice killed [1]
CC(=O)CCCCn1c(=O)c2c(ncn2C)n(C)c1=O [Pentoxifylline, reference compound]	73.5	–	–	–
Nc1ncnc2c1ncn2[C@H]1CC[C@H]2[C@@H]1CC[C@H]2O (racemic) [(±)-Exo-2-adenyl-endo-6-hydroxybicyclo[3,3,0]octane Dihydrochloride]	–	0.143	100	0 out of 8

From patent US6420373B1, “9-N-Bicyclic nuceoside agents useful as selective inhibitors of proinflammatory cytokines” (Merrell Pharmaceuticals Inc., priority 1993, dated 2002)
